We go through one compound from patent publication US20250009763A1, “METHODS FOR EXTENDING LIFESPAN AND/OR DELAYING AGING” (priority 2023, published 2025).

The test system of series [1] is aged C57BL/6J mice. Kind of series: Survival, body weight and food intake of aged mice.
In series [2] the target is T1, SIRT1 (Homo sapiens, UniProt Q96EB6).
T1 construct: endogenous in cells; host or cells: U2OS cells; IMR90 cells
T1 sequence (Q96EB6 1-747): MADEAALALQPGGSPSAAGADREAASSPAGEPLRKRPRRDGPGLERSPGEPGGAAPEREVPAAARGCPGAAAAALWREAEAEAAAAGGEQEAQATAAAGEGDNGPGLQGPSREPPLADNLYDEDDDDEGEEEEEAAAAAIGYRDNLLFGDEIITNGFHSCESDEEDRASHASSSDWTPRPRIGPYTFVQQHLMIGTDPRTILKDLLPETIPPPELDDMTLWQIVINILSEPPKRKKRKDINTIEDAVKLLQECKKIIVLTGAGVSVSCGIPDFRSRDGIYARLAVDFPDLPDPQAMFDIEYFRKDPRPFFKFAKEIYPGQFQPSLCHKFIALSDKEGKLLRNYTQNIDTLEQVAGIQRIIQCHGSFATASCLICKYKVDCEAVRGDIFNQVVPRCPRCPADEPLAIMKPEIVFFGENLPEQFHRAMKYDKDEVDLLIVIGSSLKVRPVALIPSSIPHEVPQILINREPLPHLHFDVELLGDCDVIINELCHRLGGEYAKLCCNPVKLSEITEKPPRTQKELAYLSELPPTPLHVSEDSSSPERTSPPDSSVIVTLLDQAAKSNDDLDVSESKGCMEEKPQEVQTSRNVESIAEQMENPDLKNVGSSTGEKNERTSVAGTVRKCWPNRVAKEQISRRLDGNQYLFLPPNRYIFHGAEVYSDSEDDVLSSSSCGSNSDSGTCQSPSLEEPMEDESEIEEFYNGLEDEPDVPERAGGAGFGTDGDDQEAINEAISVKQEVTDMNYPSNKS
Kind of series: Acetylation of p53 (K382) via UV irradiation, western blot, U2OS cells. The settings on record: 10-100 μM PN6, FIGS. 2C-2D. The class given is cell-based. As to the method:
U2OS cells (1.2×10^5 cells/dish) or IMR90 cells (3.0×10^5 cells/dish) were seeded into a 3.5 cm culture dish, and incubated with 0, 10, 25, 50, or 100 μM PN6 for 16 hours, before subjected to UVB irradiation at 7.5 mJ/m^2 (for U2OS cells) or 5.0 mJ/m^2 (for IMR90 cells) for 4 hours.
Cells were harvested with a 1.25× Laemmli buffer and lysed in RIPA lysis buffer containing 1% of Triton X-100 and a protease inhibitor cocktail, and total protein concentrations were measured with a protein assay kit. Proteins in the samples of the lysates with the same amounts of total protein were separated by sodium dodecyl sulfate polyacrylamide gel electrophoresis (SDS-PAGE) (10% polyacrylamide gels) and analyzed by immunoblotting. Primary antibodies against p53ac (K382) (1:1,000), p21 (1:1,000), and 3-actin (1:200,000) were applied to detect the corresponding proteins. Horseradish peroxidase (HRP)-conjugated secondary antibodies against mouse IgG were then incubated with the membranes, and proteins were visualized by chemiluminescence according to the manufacturer's instructions. Protein quantification was performed by software.
(In general: A western blot detects proteins with antibodies after separation by electrophoresis.)

The test system of series [3] is sir2Δfob1Δ mutant strain of yeast. The series is described as follows: RLS of sir2Δfob1Δ double deletion strain. It is filed as cell-based, Saccharomyces cerevisiae. Conditions: 25 μM; FIG. 2A. As to the method: The micromanipulation of the yeast cells was carried out as follows. Prior to analysis, yeast strains BY4741 (WT), BY4741-fob1Δ (fob1Δ), or BY4741-sir2Δfob1Δ (sir2Δfob1Δ) were plated onto fresh solid YEPD medium and grown at 30° C. for two days. Then, individual colonies were picked and grown in solid YEPD media containing: (1) dimethyl sulfoxide (DMSO), (2) 10, 25, or 50 μM PN6, or (3) 25 μM β-sitosterol at 30° C. overnight, and a small number of yeast cells were then plated onto a fresh YEPD plate for lifespan analysis. After overnight growth on the lifespan plates, the cells were arrayed on the plate using a micromanipulator and allowed to grow for approximately 3 hours. Virgin daughter cells were selected and subjected to lifespan analysis. In the lifespan experiments, the plates were incubated at 30° C. during the day and stored at 4° C. overnight. Each experiment consisted of more than 50 mother cells and was independently repeated three times.

Series [4] concerns aged C57BL/6J mice. Kind of series: Rotarod test. The class given is in vivo, mouse. The settings on record: rotarod at constant or accelerating speed; mid-term and long-term; versus SD-fed mice; FIGS. 4H-4I. As to the method: The male C57BL/6J mice were subjected to a rotarod test at 88 weeks (mid-term) and 112 weeks (long-term) of age. The mice underwent a 3-day habituation period, during which they were placed on the rotarod at a constant speed (4 rpm), and were required to remain on the rotarod for 1 minute at a time every day. To conduct the actual test, each mouse was subjected to five trials, with a 10-15 minute rest period between each trial. For each trial, the tests for the constant and accelerated speeds were conducted sequentially according to the following schedule: During a 5-minute trial period, a run consisted of an initial constant rotating speed of 4 rpm and a subsequent accelerated rotating speed accelerated from 4 to 40 rpm was performed 5 times. […] The latency to falling was recorded, and the average latency to falling was calculated for each trial. Data are presented as the average of the 5 trials. Mid-term: SD, n=30; PN6, n=8; long-term: SD, n=22; PN6, n=8.
A general note: The rotarod test checks motor coordination on a turning rod.

For series [5], the system named is HUVECs. Kind of series: Population doubling (PD) assay. The class given is cell-based, human. Conditions: 1 or 2 μM; FIG. 3A. On the procedure: For the population doubling (PD) assay, HUVECs (1×10^5 cells/3.5 cm dish) were propagated in the presence of DMSO (i.e., control) or PN6 (1 or 2 μM) until senescence (Day 41), and the cell numbers in each passage were recorded to generate a growth curve that represented the cumulative population doubling. The population doubling levels (PDLs) of HUVECs were calculated in every culture to indicate the proliferation capacity of HUVECs under the respective conditions. The population doublings (PDs) were estimated using the equation: PDL=3.32 (log (total viable cells at harvest/total viable cells at seeding). Also, HUVECs at passages PDL4 and PDL11 cultured in 0 μM (i.e., DMSO alone), 1 μM, or 2 μM PN6 were harvested for further analyses (e.g., western blot and SA-β-gal staining).

Take `CCC(CC[C@@H](C)C1CCC2C3CC(=O)[C@H]4C[C@@H](O)CC[C@]4(C)C3CC[C@@]21C)C(C)C` (stereo in doubt) [PN6, (24S)-3β-hydroxy-5α-stigmastan-6-one]: the “trajectories of body weight” value in series [1] (chow containing 50 mg/kg PN6, FIG. 4B) is listed as “remained in a steady state”. Further, the “lifespan of the aged mice” value in series [1] (chow containing 50 mg/kg PN6, versus SD group, FIG. 4A) is listed as “significantly increased the lifespan”. The food intake entry in series [1] (versus SD group, entire course of the experiment, FIG. 4C) was “did not diverge”. The “degree of acetylation of P53 at K382” value in series [2] was “decreased in a dose-dependent manner”. Also, in series [3], the “extension of lifespan of sir2Δfob1Δ mutant strain” value is reported as “unable to extend the lifespan”. The “motor skills (latency to falling)” value in series [4] was “steadily improved”. The “population doubling level (PDL) of HUVECs” value in series [5] is recorded as “increase the PDL”.
